Starred links: 1 amine or outer side, 2 acyl side, 3 side chain; linkers in the order of their positions; H or OH if unused. Positions of bridges follow the written chain, without caps; N, C: chain ends. Non-standard residues stand in square brackets, D forms with d. Residues, ends and D or L forms follow the SMILES beside them. *: point of attachment. Trp(7-(3-AcNH-Ph)) = CC(=O)Nc1cccc(-c2cccc3c(C[C@H](N)C(=O)O)c[nH]c23)c1; X36 = C[N+]1(CCCc2cn(-c3ccc(C[C@H](N[*:1])C(=O)[*:2])cc3)nn2)CCOCC1; X33 = C[N+](C)(C)CCCCc1cn(-c2ccc(C[C@H](N[*:1])C(=O)[*:2])cc2)nn1; Me3N+(CH2)2O(CH2)2O(CH2)2CO = C[N+](C)(C)CCOCCOCCC(=O)*; Trp(7-Me) = Cc1cccc2c(C[C@H](N)C(=O)O)c[nH]c12; dLys(Me3) = C[N+](C)(C)CCCC[C@@H](N)C(=O)O; 2Nal = N[C@@H](Cc1ccc2ccccc2c1)C(=O)O; AEF = NCCOc1ccc(C[C@H](N)C(=O)O)cc1; 3Pal = N[C@@H](Cc1cccnc1)C(=O)O; Pen = CC(C)(S)[C@H](N)C(=O)O; X8 = C[N+](C)(C)CCCCCCCC*; Thp = NC1(C(=O)O)CCOCC1; X3 = C[N+](C)(C)CCCCC*; Sar = CNCC(=O)O
test: Exposed Polar Surface Area (EPSA); assay type: physicochemical; details: SFC on Chirex 3014 column; sample 1 mM DMSO stock; read-out: EPSA
Method in brief: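 Polarity measured by SFC on a Chirex 3014 column (35 °C, 4 mL/min) with methanol/ammonium formate in CO2 as gradient eluent. Retention times were normalised to EPSA (Å^2) against eight reference compounds.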

Row | SMILES | EPSA [A^2]
1 | CC(=O)NCCCC[C@@H]1NC(=O)[C@H](Cc2c[nH]c3c(C)cccc23)NC(=O)[C@H]([C@@H](C)O)NC(=O)[C@H](CC(N)=O)NC(=O)[C@@H](NC(C)=O)C(C)(C)SSC(C)(C)[C@@H](C(=O)N[C@@H](Cc2ccc(-n3cc(CCCC[N+](C)(C)C)nn3)cc2)C(=O)N[C@@H](Cc2ccc3ccccc3c2)C(=O)NC2(C(=O)N[C@@H](CCC(=O)O)C(=O)N[C@@H](CC(N)=O)C(=O)N[C@@H](Cc3cccnc3)C(=O)N(C)CC(N)=O)CCOCC2)NC1=O [compound 442] (Ac-[Pen]NT[Trp(7-Me)]K(Ac)[Pen][X33][2Nal][Thp]EN[3Pal][Sar]-NH2; disulfide 1-6 (inferred)) | 169
2 | CC(=O)NCCCC[C@@H]1NC(=O)[C@H](Cc2c[nH]c3c(-c4cccc(NC(C)=O)c4)cccc23)NC(=O)[C@H]([C@@H](C)O)NC(=O)[C@H](CC(N)=O)NC(=O)[C@@H](NC(=O)CCOCCOCC[N+](C)(C)C)C(C)(C)SSC(C)(C)[C@@H](C(=O)N[C@@H](Cc2ccc(OCCCCC[N+](C)(C)C)cc2)C(=O)N[C@@H](Cc2ccc3ccccc3c2)C(=O)NC2(C(=O)N[C@@H](CCC(=O)O)C(=O)N[C@@H](CC(N)=O)C(=O)N[C@@H](Cc3cccnc3)C(=O)N(C)CC(N)=O)CCOCC2)NC1=O [compound 444, cPEG3aCO-Pen(3)-N-T-7(3NAcPh)W-K(Ac)-Pen(3)-TMAPF-2Nal-THP-E-N-3Pya-Sar-CONH2] ({Me3N+(CH2)2O(CH2)2O(CH2)2CO}-[Pen]NT[Trp(7-(3-AcNH-Ph))]K(Ac)[Pen]Y(X3)[2Nal][Thp]EN[3Pal][Sar]-NH2; disulfide 1-6) | 174
3 | CC(=O)NCCCC[C@@H]1NC(=O)[C@H](Cc2c[nH]c3c(C)cccc23)NC(=O)[C@H]([C@@H](C)O)NC(=O)[C@H](CC(N)=O)NC(=O)[C@@H](NC(=O)[C@@H](CCCC[N+](C)(C)C)NC(C)=O)C(C)(C)SSC(C)(C)[C@@H](C(=O)N[C@@H](Cc2ccc(OCCCCC[N+](C)(C)C)cc2)C(=O)N[C@@H](Cc2ccc3ccccc3c2)C(=O)NC2(C(=O)N[C@@H](CCCCNC(C)=O)C(=O)N[C@@H](CC(N)=O)C(=O)N[C@@H](Cc3cccnc3)C(=O)N(C)CC(N)=O)CCOCC2)NC1=O [compound 450, MeCO-k(Me)3-Pen(3)-N-T-7MeW-K(Ac)-Pen(3)-TMAPF-2Nal-THP-K(Ac)-N-3Pya-Sar-CONH2] (Ac-[dLys(Me3)][Pen]NT[Trp(7-Me)]K(Ac)[Pen]Y(X3)[2Nal][Thp]K(Ac)N[3Pal][Sar]-NH2; disulfide 2-7) | 165
4 | CC(=O)NCCCC[C@@H]1NC(=O)[C@H](Cc2c[nH]c3c(-c4cccc(NC(C)=O)c4)cccc23)NC(=O)[C@H]([C@@H](C)O)NC(=O)[C@H](CC(N)=O)NC(=O)[C@@H](NC(C)=O)C(C)(C)SSC(C)(C)[C@@H](C(=O)N[C@@H](Cc2ccc(OCCCCC[N+](C)(C)C)cc2)C(=O)N[C@@H](Cc2ccc3ccccc3c2)C(=O)NC2(C(=O)N[C@@H](CCCCNC(C)=O)C(=O)N[C@@H](CC(N)=O)C(=O)N[C@@H](Cc3cccnc3)C(=O)N(C)CC(N)=O)CCOCC2)NC1=O [compound 452, MeCO-Pen(3)-N-T-7(3NAcPh)W-K(Ac)-Pen(3)-TMAPF-2Nal-THP-K(Ac)-N-3Pya-Sar-CONH2] (Ac-[Pen]NT[Trp(7-(3-AcNH-Ph))]K(Ac)[Pen]Y(X3)[2Nal][Thp]K(Ac)N[3Pal][Sar]-NH2; disulfide 1-6) | 163
5 | CC(=O)NCCCC[C@@H]1NC(=O)[C@H](Cc2c[nH]c3c(C)cccc23)NC(=O)[C@H]([C@@H](C)O)NC(=O)[C@H](CC(N)=O)NC(=O)[C@@H](NC(C)=O)C(C)(C)SSC(C)(C)[C@@H](C(=O)N[C@@H](Cc2ccc(-n3cc(CCC[N+]4(C)CCOCC4)nn3)cc2)C(=O)N[C@@H](Cc2ccc3ccccc3c2)C(=O)NC2(C(=O)N[C@@H](CCC(=O)O)C(=O)N[C@@H](CC(N)=O)C(=O)N[C@@H](Cc3cccnc3)C(=O)N(C)CC(N)=O)CCOCC2)NC1=O [compound 453] (Ac-[Pen]NT[Trp(7-Me)]K(Ac)[Pen][X36][2Nal][Thp]EN[3Pal][Sar]-NH2; disulfide 1-6) | 173
6 | CC(=O)NCCCC[C@@H]1NC(=O)[C@H](Cc2c[nH]c3c(C)cccc23)NC(=O)[C@H]([C@@H](C)O)NC(=O)[C@H](CC(N)=O)NC(=O)[C@@H](NC(C)=O)C(C)(C)SSC(C)(C)[C@@H](C(=O)N[C@@H](Cc2ccc(OCCCCCCCC[N+](C)(C)C)cc2)C(=O)N[C@@H](Cc2ccc3ccccc3c2)C(=O)NC2(C(=O)N[C@@H](CCC(=O)O)C(=O)N[C@@H](CC(N)=O)C(=O)N[C@@H](Cc3cccnc3)C(=O)N(C)CC(N)=O)CCOCC2)NC1=O [compound 457] (Ac-[Pen]NT[Trp(7-Me)]K(Ac)[Pen]Y(X8)[2Nal][Thp]EN[3Pal][Sar]-NH2; disulfide 1-6 (inferred)) | 163

Next, values leading:

Row | EPSA [A^2] | SMILES
7 | 176 | CC(=O)NCCCC[C@@H]1NC(=O)[C@H](Cc2c[nH]c3c(-c4cccc(NC(C)=O)c4)cccc23)NC(=O)[C@H]([C@@H](C)O)NC(=O)[C@H](CC(N)=O)NC(=O)[C@@H](NC(=O)CCOCCOCC[N+](C)(C)C)C(C)(C)SSC(C)(C)[C@@H](C(=O)N[C@@H](Cc2ccc(OCCN)cc2)C(=O)N[C@@H](Cc2ccc3ccccc3c2)C(=O)NC2(C(=O)N[C@@H](CCCCNC(C)=O)C(=O)N[C@@H](CC(N)=O)C(=O)N[C@@H](Cc3cccnc3)C(=O)N(C)CC(N)=O)CCOCC2)NC1=O [compound 445, cPEG3aCO-Pen(3)-N-T-7(3NAcPh)W-K(Ac)-Pen(3)-AEF-2Nal-THP-K(Ac)-N-3Pya-Sar-CONH2] ({Me3N+(CH2)2O(CH2)2O(CH2)2CO}-[Pen]NT[Trp(7-(3-AcNH-Ph))]K(Ac)[Pen][AEF][2Nal][Thp]K(Ac)N[3Pal][Sar]-NH2; disulfide 1-6)
8 | 173 | CC(=O)NCCCC[C@@H]1NC(=O)[C@H](Cc2c[nH]c3c(C)cccc23)NC(=O)[C@H]([C@@H](C)O)NC(=O)[C@H](CC(N)=O)NC(=O)[C@@H](NC(=O)[C@@H](CCCC[N+](C)(C)C)NC(C)=O)C(C)(C)SSC(C)(C)[C@@H](C(=O)N[C@@H](Cc2ccc(OCCCCC[N+](C)(C)C)cc2)C(=O)N[C@@H](Cc2ccc3ccccc3c2)C(=O)NC2(C(=O)N[C@@H](CCC(=O)O)C(=O)N[C@@H](CC(N)=O)C(=O)N[C@@H](Cc3cccnc3)C(=O)N(C)CC(N)=O)CCOCC2)NC1=O [compound 446, MeCO-k(Me)3-Pen(3)-N-T-7MeW-K(Ac)-Pen(3)-TMAPF-2Nal-THP-E-N-3Pya-Sar-CONH2] (Ac-[dLys(Me3)][Pen]NT[Trp(7-Me)]K(Ac)[Pen]Y(X3)[2Nal][Thp]EN[3Pal][Sar]-NH2; disulfide 2-7)
9 | 176 | CC(=O)NCCCC[C@@H]1NC(=O)[C@H](Cc2c[nH]c3c(-c4cccc(NC(C)=O)c4)cccc23)NC(=O)[C@H]([C@@H](C)O)NC(=O)[C@H](CC(N)=O)NC(=O)[C@@H](NC(=O)[C@@H](CCCC[N+](C)(C)C)NC(C)=O)C(C)(C)SSC(C)(C)[C@@H](C(=O)N[C@@H](Cc2ccc(OCCN)cc2)C(=O)N[C@@H](Cc2ccc3ccccc3c2)C(=O)NC2(C(=O)N[C@@H](CCCCNC(C)=O)C(=O)N[C@@H](CC(N)=O)C(=O)N[C@@H](Cc3cccnc3)C(=O)N(C)CC(N)=O)CCOCC2)NC1=O [compound 449] (Ac-[dLys(Me3)][Pen]NT[Trp(7-(3-AcNH-Ph))]K(Ac)[Pen][AEF][2Nal][Thp]K(Ac)N[3Pal][Sar]-NH2; disulfide 2-7)
